Where two headings read alike, the source gives them in different places.
Legend:
[1] = target: T1, α1β1γδ subtype of nicotinic acetylcholine receptors (Rattus norvegicus, UniProt P18916+P25108+P25109+P25110); assay: Binding assays at α1β1γδ subtype of nicotinic acetylcholine receptors ([3H]-α-bungarotoxin, rat muscle extract); conditions: for remaining activity at 100 µM / remaining activity at 1000 µM: read-out: control % of [3H]-α-Bgt binding
T1 construct: Native receptor, no construct: "Triton X100 (2% w/v) was added
T1 sequence (P25108 21-457): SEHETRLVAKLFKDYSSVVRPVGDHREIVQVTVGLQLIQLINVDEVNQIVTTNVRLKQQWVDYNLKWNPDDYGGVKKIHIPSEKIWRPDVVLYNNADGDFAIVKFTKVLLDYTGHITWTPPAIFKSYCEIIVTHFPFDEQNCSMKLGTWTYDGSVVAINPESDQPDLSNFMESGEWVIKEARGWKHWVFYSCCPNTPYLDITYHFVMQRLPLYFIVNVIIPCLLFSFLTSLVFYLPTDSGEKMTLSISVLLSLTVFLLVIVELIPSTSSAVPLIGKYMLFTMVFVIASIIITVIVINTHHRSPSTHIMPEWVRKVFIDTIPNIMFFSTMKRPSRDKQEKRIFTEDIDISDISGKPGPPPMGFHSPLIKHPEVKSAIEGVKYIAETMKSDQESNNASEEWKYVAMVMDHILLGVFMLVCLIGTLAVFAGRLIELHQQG
T1 sequence (P25110 22-517): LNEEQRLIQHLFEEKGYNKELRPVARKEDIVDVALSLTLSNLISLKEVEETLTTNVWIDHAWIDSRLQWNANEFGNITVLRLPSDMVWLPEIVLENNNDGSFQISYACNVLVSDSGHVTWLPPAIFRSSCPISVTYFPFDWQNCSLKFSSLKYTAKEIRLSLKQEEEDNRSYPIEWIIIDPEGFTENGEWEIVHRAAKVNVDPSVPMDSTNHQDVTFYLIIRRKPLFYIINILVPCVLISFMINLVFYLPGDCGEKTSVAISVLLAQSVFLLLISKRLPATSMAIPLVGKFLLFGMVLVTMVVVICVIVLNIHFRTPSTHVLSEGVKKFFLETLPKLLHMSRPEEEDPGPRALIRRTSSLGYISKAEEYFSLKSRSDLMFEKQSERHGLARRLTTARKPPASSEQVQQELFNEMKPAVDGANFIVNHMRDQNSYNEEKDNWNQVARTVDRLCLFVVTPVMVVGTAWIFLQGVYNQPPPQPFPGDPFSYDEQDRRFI
T1 sequence (P25109 24-501): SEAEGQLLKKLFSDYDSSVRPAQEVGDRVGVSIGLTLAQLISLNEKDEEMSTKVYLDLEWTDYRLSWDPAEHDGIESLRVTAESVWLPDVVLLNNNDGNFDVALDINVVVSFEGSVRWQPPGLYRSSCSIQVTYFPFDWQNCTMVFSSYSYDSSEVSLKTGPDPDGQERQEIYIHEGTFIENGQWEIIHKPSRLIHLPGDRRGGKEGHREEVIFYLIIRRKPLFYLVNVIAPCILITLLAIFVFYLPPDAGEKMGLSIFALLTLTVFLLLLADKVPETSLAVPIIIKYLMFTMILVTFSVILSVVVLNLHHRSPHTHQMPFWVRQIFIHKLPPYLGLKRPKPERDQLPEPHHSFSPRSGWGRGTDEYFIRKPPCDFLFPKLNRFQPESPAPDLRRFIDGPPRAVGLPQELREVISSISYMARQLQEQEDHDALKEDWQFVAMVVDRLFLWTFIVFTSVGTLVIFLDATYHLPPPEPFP

[2] = target: T2, human α4β2 subtype of nicotinic acetylcholine receptors (Homo sapiens, UniProt P17787+P43681); assay: Agonist activities at human α4β2 subtype of nicotinic acetylcholine receptors expressed in Xenopus oocytes (membrane potential holding method); format: cell-based; conditions: for Emax at 100 µM: read-out: Agonist activity: control % by response at 100 μM of the test compound
T2 construct: expressed in transfected cells; host or cells: Xenopus laevis oocytes injected with 50 ng each of α4 and β2 cRNA (pSP64 polyA vector)
T2 sequence (P43681 29-627 limits assumed): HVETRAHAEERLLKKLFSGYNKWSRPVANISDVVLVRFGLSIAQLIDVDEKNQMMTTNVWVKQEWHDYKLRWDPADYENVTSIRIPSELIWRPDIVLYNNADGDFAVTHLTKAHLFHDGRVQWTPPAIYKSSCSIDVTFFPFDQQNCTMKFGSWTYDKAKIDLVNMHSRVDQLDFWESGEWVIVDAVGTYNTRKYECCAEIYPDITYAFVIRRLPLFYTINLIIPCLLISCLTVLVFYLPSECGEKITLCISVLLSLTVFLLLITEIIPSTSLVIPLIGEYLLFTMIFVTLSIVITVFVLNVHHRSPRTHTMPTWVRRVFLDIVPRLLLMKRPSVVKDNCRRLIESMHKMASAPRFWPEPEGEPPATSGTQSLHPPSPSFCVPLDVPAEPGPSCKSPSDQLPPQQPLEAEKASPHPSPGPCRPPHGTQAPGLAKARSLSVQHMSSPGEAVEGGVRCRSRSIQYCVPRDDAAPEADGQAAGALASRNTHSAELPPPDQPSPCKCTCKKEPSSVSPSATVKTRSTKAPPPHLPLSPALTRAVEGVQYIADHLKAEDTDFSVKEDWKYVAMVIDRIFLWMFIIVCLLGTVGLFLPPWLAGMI
T2 sequence (P17787 26-502): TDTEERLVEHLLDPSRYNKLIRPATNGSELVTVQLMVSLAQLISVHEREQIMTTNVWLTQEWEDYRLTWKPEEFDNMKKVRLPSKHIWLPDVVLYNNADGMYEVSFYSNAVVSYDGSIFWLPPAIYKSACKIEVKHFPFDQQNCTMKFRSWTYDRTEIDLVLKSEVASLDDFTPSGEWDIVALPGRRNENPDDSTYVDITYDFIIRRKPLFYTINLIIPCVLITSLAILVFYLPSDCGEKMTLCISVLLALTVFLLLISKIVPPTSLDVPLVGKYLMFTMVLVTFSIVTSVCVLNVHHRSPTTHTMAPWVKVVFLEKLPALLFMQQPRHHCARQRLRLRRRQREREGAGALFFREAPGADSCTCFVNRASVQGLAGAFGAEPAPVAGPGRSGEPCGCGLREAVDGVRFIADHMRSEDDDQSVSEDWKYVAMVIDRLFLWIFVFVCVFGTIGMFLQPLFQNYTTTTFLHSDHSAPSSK
Procedure: Agonist effect in human α4β2 subtype of nicotinic acetylcholine receptors are examined by using human nicotinic acetylcholine receptors prepared in oocytes of Xenopus laevis, which is injected with cRNA from the corresponding cloning cDNA of human α4 and β2 subunits of nicotinic acetylcholine receptors, and to measure the expression of electric response by adding the test compounds to perfusion solution by means of membrane potential holding method.
Agonist Activities at Human α4β2 Subtype of Nicotinic Acetylcholine Receptors
(1) Preparation of cRNA of Human α4β2 Subtype of Nicotinic Acetylcholine Receptors
Obtained hnACh-R α4 cDNA and hnACh-R β2 cDNA were inserted to the cRNA expression vector (pSP64 polyA) having SP6 RNA promoter to construct hnACh-R α4/pSP64 polyA and hnACh-R β2/pSP64 polyA, respectively. After cutting from expression vector by restriction enzyme (EcoRI), transcription was performed by affecting SP6 RNA polymerase in the presence of cap analogues to obtain hnACh-R α4 cRNA and hnACh-R β2 cRNA, respectively.
(2) Expression of Human α4β2 Subtype Nicotinic Acetylcholine Receptors in Xenopus oocytes
Oocytes were purchased from Kitanihonseibutsukyohzai Co., Ltd., which were already enucleated from Xenopus laevis, and used in this experiment.
The oocytes were treated with collagenase (Sigma type I; 1 mg/ml) in calcium-free modified Birth's solution (88 mM of NaCl, 1 mM of KCl, 2.4 mM of NaHCO3, 0.82 mM of MgSO4, 15 mM of HEPES, pH 7.6) under gently stirring at room temperature for 90 minutes, and washed out the enzyme from the tissue. Then, oocytes were separated from ovarian follicle by tweezers, and isolated oocytes were placed in antibiotics containing modified Birth's solution (88 mM of NaCl, 1 mM of KCl, 2.4 mM of NaHCO3, 0.82 mM of MgSO4, 15 mM of HEPES, pH 7.6, and 0.1 v/v% of mixture solution containing of penicillin and streptomycin for incubation; Sigma Co.). […] In oocytes, heterogeneous quintuple [(α4)2(β2)3] was composed by translation of injected cRNAs, and ion channel receptors were constructed on cell membrane.
(3) Agonist Activities at Human α4β2 Subtype of Nicotinic Acetylcholine Receptors
Recordings of response at human α4β2 subtype of nicotinic acetylcholine receptors by means of membrane potential holding method were performed as follow. […] Test compounds were added to the perfusion solution, and recorded the peak strength of induced inward current. In order to normalize the response of test compounds, the response with acetylcholine (Ach) were recorded before and after application of the test compounds. Generally in the oocytes just after isolated, the response of intrinsic muscarinic acetylcholine receptors, which is inward electric current caused by activation of calcium dependence chloride ion channels with increase of the intracellular calcium concentration by stimulation of receptors, is observed. […] Therefore, the responses observed in oocytes with injection of hnACh-R α4 cRNA and hnACh-R β2 cRNA, i.e., the inward current induced by the intracellular influx of sodium ion according to the stimulation of receptors, would be the freshly observed responses of human α4β2 subtype nicotinic acetylcholine receptors.

[3] = 100 μM test compound, in comparison with the response at 10 μM acetylcholine (100%)
[4] = Xenopus oocytes expressing human α4β2, held at −50 mV, peak inward current, read-out: Agonist activity (ED50)

Row | SMILES | remaining activity at 100 µM [1] [%] | remaining activity at 1000 µM [1] [%] | Emax at 100 µM [2] [%] | further results
1 | N=C1SCCN1Cc1ccnnc1 [Compound 33, 2-imino-3-(4-pyridazinyl)methylthiazolidine] | 15 | 1 | 6 | 
2 | Nc1nccn1Cc1cccnc1 [Compound 55, 2-amino-i-(3-pyridyl)methylimidazole] |  |  |  | Ki ([1]; rat muscle extract, [3H]-α-Bgt (1 nM), read-out: Affinities for receptors Ki α1β1γδ): 66 µM; Emax at 100 µM [2, 3]: 17%
3 | N=C1SCCN1Cc1ccc(Cl)nc1 [Compound 5, 3-(6-chloro-3-pyridyl)methyl-2-iminothiazolidine] |  |  |  | Ki [1]: 7.65 µM; Emax at 100 µM [2, 3]: 4.9%
4 | N=C1CCCN1Cc1ccc(Cl)nc1 [Compound 14, 1-(6-Chloro-3-pyridyl)methyl-2-iminopyrrolidine] | 14 | 0 |  | EC50 [2]: 27.1 µM
5 | N=c1sccn1Cc1ccc(Br)nc1 [Compound 11, 3-(6-bromo-3-pyridyl)methyl-2-imino-2,3-dihydrothiazole] | 13 | 5 | 47 | 
6 | N=C1SCCN1Cc1cnc(Cl)s1 [Compound 34, 3-(2-chloro-5-thiazolyl)methyl-2-iminothiazolidine] | 14 | -1 | 13 | 
7 | N=c1ccc(-c2ccccc2)nn1Cc1ccc(Cl)nc1 [Compound 44, 2-(6-chloro-3-pyridyl)methyl-3-imino-6-phenyl-2,3-dihydropyridazine] | 80 | 26 | 10 | 
8 | N=C1SCCN1Cc1ccc(Cl)cc1 [Compound 31, 3-(4-chlorobenzyl)-2-iminothiazolidine] | 37 | 10 | 4 | 
9 | Nc1nccn1Cc1ccc(Cl)nc1 [Compound 9, 2-amino-1-(6-chloro-3-pyridyl)methylimidazole] | 86 | 49 |  | EC50 [2, 4]: 92 µM
10 | N=c1sccn1Cc1ccc(Cl)nc1 [Compound 8, 3-(6-chloro-3-pyridyl)methyl-2-imino-2,3-dihydrothiazole] |  |  |  | Ki [1]: 10.2 µM; EC50 [2, 4]: 4.2 µM
11 | N=C1NCCN1Cc1ccc(Cl)nc1 [Compound 13, 1-(6-Chloro-3-pyridyl)methyl-2-iminoimidazolidine] | 26 | 8 |  | EC50 [2, 4]: 14.7 µM
12 | N=c1ccccn1Cc1ccc(Cl)nc1 [Compound 7, 1-(6-chloro-3-pyridyl)methyl-2-imino-1,2-dihydropyridine] |  |  |  | Ki [1]: 71.2 µM; Emax at 100 µM [2, 3]: 16%
13 | N=c1sccn1Cc1ccc(F)nc1 [Compound 12, 3-(6-fluoro-3-pyridyl)methyl-2-imino-2,3-dihydrothiazole] | 20 | -2 | 21 | 
